Test results reported in the supplement of paper PMC9663587.

Columns and labels:
Test in all cases: GRmax, 72 h; higher = less effect;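 also: breast cell lines in 384-well plates, nine doses across a 10^4 range, Dye Drop imaging of viable cells vs DMSO and time-zero plates, GR 0 means no net growth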
HCC1806 = system: HCC1806
SUM44PE = system: SUM44PE
EFM19 = system: EFM19
SUM185PE = system: SUM185PE
HCC70 = system: HCC70
MDAMB453 = system: MDAMB453
HS578T = system: HS578T
ZR751 = system: ZR751
CAL851 = system: CAL851
UACC893 = system: UACC893
BT20 = system: BT20
HCC38 = system: HCC38

SMILES	GRmax, 72 h (HCC1806) [GR]	GRmax, 72 h (SUM44PE) [GR]	GRmax, 72 h (EFM19) [GR]	GRmax, 72 h (SUM185PE) [GR]	GRmax, 72 h (HCC70) [GR]	GRmax, 72 h (MDAMB453) [GR]	GRmax, 72 h (HS578T) [GR]	GRmax, 72 h (ZR751) [GR]	GRmax, 72 h (CAL851) [GR]	GRmax, 72 h (UACC893) [GR]	GRmax, 72 h (BT20) [GR]	GRmax, 72 h (HCC38) [GR]
COc1ccc2c(c1)[C@]1(C[C@H]1c1ccc3c(/C=C/c4ccc(CN5C[C@@H](C)O[C@@H](C)C5)cc4)n[nH]c3c1)C(=O)N2	-0.106	-0.249	0.146	0.364	-0.31	0.0847	-0.103	0.166	-0.11	0.138	-0.231	-0.403
COc1cccc(OCCCN)c1-c1cc(Nc2cnc(C#N)cn2)n[nH]1	-0.476	-0.79	0.929	0.559	-0.639	-0.513	-0.359	0.384	0.0306	0.365	-0.2	-0.556
CC(=O)Nc1cccc(-n2c(=O)n(C3CC3)c(=O)c3c(Nc4ccc(I)cc4F)n(C)c(=O)c(C)c32)c1 (max 1 µM)	0.704	0.56	0.952	0.904	-0.0393	0.0489	0.193	0.266	0.234	-0.0662	0.503	0.185
CCc1cnn2c(NCc3ccc[n+]([O-])c3)cc(N3CCCC[C@H]3CCO)nc12 (max 1 µM)	-0.459	-0.925	-0.532	0.18	-0.909	-0.257	-0.239	-0.406	-0.241	-0.641	-0.698	-0.442
CC(=O)c1c(C)c2cnc(Nc3ccc(N4CCNCC4)cn3)nc2n(C2CCCC2)c1=O (max 3.162 µM)	0.692	0.437	0.308	0.852	0.936	0.0416	0.305	0.482	1.08	0.344	0.162	0.147
CCc1cncnc1N1CCN(Cc2nc3ccc(C(F)(F)F)cc3[nH]2)CC1 (max 10 µM)	1.15	0.292	0.921	0.182	0.935	0.0482	0.914	0.867	1.02	0.351	0.66	0.976
CCCCOc1c(C(=O)c2c(F)cc(C)cc2F)c[nH]c2nncc1-2 (max 10 µM)	0.0151	-0.234	0.188	0.905	-0.164	0.31	-0.0288	0.451	-0.012	0.117	-0.105	-0.0129
CCN1CCN(Cc2ccc(Nc3ncc(F)c(-c4cc(F)c5nc(C)n(C(C)C)c5c4)n3)nc2)CC1 (max 10 µM)	-0.444	-0.763	0.267	0.486	-0.826	-0.765	-0.583	0.311	-0.224	-0.22	-0.216	-0.327
CNc1nc(-c2ccc3c(N)n[nH]c3c2)cc(N2C[C@@H](C(=O)NC3CCCCC3)CC[C@H]2C)n1 (max 10 µM)	0.869	0.166	0.292	0.54	0.15	0.147	0.538	0.425	0.506	0.144	0.68	0.767
CO[C@@H](C)Cn1c(=O)n(C)c2cnc3ccc(-c4cncc(C(C)(C)O)c4)cc3c21 (max 10 µM)	-0.0061	-0.855	-0.255	-0.0606	-0.755	-0.578	0.0776	-0.117	-0.0445	-0.84	-0.645	-0.0301
Cc1nn(C)c(COc2ccc(N3CCN(S(=O)(=O)N(C)C)CC3)cc2)c1-c1cccc2c(CCCOc3cccc4ccccc34)c(C(=O)O)n(CCN3CCOCC3)c12 (max 10 µM)	0.905	-0.463	1	0.532	0.938	0.933	0.942	1.03	1.01	0.763	0.821	0.887
CN(C)CC[C@H](CSc1ccccc1)Nc1ccc(S(=O)(=O)NC(=O)c2ccc(N3CCN(Cc4ccccc4-c4ccc(Cl)cc4)CC3)cc2)cc1[N+](=O)[O-] [ABT-737] (max 10 µM)	0.729	-0.0028	0.475	-0.294	-0.0638	0.152	0.775	0.886	0.934	0.49	0.593	-0.421
C=CCn1c(=O)c2cnc(Nc3ccc(N4CCN(C)CC4)cc3)nc2n1-c1cccc(C(C)(C)O)n1 [AZD1775] (max 10 µM)	-0.55	-0.813	-0.425	0.213	-0.75	-0.249	-0.394	0.247	-0.55	-0.42	-0.677	-0.492
CNC(=O)c1cccc(-c2ccc3c(N4CCOC[C@@H]4C)nc(N4CCOC[C@@H]4C)nc3n2)c1 [AZD2014] (max 10 µM)	0.409	-0.315	-0.0465	0.244	0.0453	0.134	0.273	-0.0477	0.114	-0.164	0.151	0.195
NC1(C(=O)N[C@@H](CCO)c2ccc(Cl)cc2)CCN(c2nc[nH]c3nccc2-3)CC1 [AZD5363] (max 10 µM)	0.789	-0.152	0.23	0.447	-0.292	0.23	0.349	0.686	0.592	-0.798	0.229	0.731
C[C@@H]1COCCN1c1cc(C2([S@](C)(=N)=O)CC2)nc(-c2cc[nH]c3nccc2-3)n1 [AZD6738] (max 10 µM)	-0.326	-0.206	0.845	0.687	-0.532	-0.162	0.0076	0.598	0.144	0.429	0.187	-0.271
